# Data taken from US6362219B1 (Council of Scientific and Industrial Research, priority 1999, dated 2002).
# Values joined by “and” are separate entries in the source; they are usually repeats but may differ in a detail not shown here. Equal entries are not always repeated. Where two headings read alike, the source gives them in different places.
# Key:
# [1] = system: malaria; conditions: cited from earlier work
# [2] = system: malaria; conditions: cited from earlier work; remark: listed apart in the source
# [3] = cited from earlier work
# [4] = cited from earlier work; remark: listed apart in the source
# [5] = rabbit, in vivo; cited from earlier work
# [6] = dog, in vivo; cited from earlier work
# [7] = cited from earlier work; for maximum plasma concentration by im route: in ng/mL
# [8] = aqueous solution at pH 7-8; cited from earlier work
# [9] = system: P. falcipurum; conditions: rectal suppository; cited from earlier work
# [10] = cited from earlier work; remark: listed apart in the source
# [11] = oral tablets, 60 mg dose, cited from earlier work
# [12] = Safety in healthy mice; format: in vivo; conditions: 30 mg/kg DHA × 5, 20 ± 1 g mice
# [13] = system: multi-drug resistant P. yoelii nigeriensis; experiment: Blood schizontocidal activity in Swiss mice by oral route; format: in vivo, Plasmodium yoelii nigeriensis; conditions: oral in oil, 30 mg/kg × 5, mice 25 ± 1 g
# Procedure: Test Parasite: Multi-drug resistant Plasmodium yoeli nigerienes (Rodent malaria strian). The P. yoeli nigerienses is a multi-drug resistant strain which is resistant to high oral doses of chloroquine (128 mg/kg×4), amodiaquine (128 mg/kg×4), meperaine (128 mg/kg×4), mefloquine (128 mg/kg×4), quinine (400 mg/kg×4) and halofantrine (32 mg/kg×4). […].
# [14] = oral artesunate; 95/Cl 387-9410, range 79-1394; cited from earlier work
# [15] = system: multi-drug resistant P. yoelii nigeriensis; experiment: Blood schizontocidal activity in Swiss mice by rectal route; format: in vivo, Plasmodium yoelii nigeriensis; conditions: for Cure-rate Day 30 (%) / Parasitaemia % Day 5 / Parasitaemia % Day 7: in oil; for Parasitaemia % Day 5 / Parasitaemia % Day 7: 8 mice
# Procedure: Test Parasite: Multi-drug resistant Plasmodium yoeli nigerienes (Rodent malaria strian). The P. yoeli nigerienses is a multi-drug resistant strain which is resistant to high oral doses of chloroquine (128 mg/kg×4), amodiaquine (128 mg/kg×4), meperaine (128 mg/kg×4), mefloquine (128 mg/kg×4), quinine (400 mg/kg×4) and halofantrine (32 mg/kg×4). […]. […] For higher doses (15 and 20 mg/kg) the drug was given in divided doses by rectal route. The tail blood smears of the mice were examined periodically after Giemsa staining upto 30 days post-infections.
# Drug is dissolved in sterile ground nut oil for adminisitration.
# [16] = system: multi-drug resistant strain of P. yoelii nigeriensis; experiment: Blood schizontocidal activity in Swiss mice and baby mice by intramuscular route; format: in vivo, Plasmodium yoelii nigeriensis; conditions: day 30
# Procedure: Test Parasite: Multi-drug resistant Plasmodium yoeli nigerienes (Rodent malaria strian). The P. yoeli nigerienses is a multi-drug resistant strain which is resistant to high oral doses of chloroquine (128 mg/kg×4), amodiaquine (128 mg/kg×4), meperaine (128 mg/kg×4), mefloquine (128 mg/kg×4), quinine (400 mg/kg×4) and halofantrine (32 mg/kg×4). […]. […] The tail blood smears of the mice were examined periodically after Giemsa staining upto 30 days post-infection.
# Drug treatment was started on day 0 (ie day of infection). Mice showing negative blood slide upto day 30 were considered as cured.
# [17] = following oral artesunate administration
# [18] = 5 mg/kg × 7, Swiss mice 20 ± 1 g
# [19] = 20 mg/kg × 7, Swiss mice 20 ± 1 g
smiles,measurement,setting,value
C[C@H]1[C@H](OC(=O)CCC(=O)O)O[C@@H]2O[C@@]3(C)CC[C@H]4[C@H](C)CC[C@@H]1[C@@]24OO3 [artesunate],cure rate,[1]; upto 750 mg,70-90%
same,times more potent than artemisinin,[2],3.2 times
same,Elimination half life,"[3]; rat, in vivo, po",80.4 ± 1560 min
same,area under plasma concentration time curve,"[3]; rat, in vivo, po",217±34 ngh ml^−1
same,maximum plasma concentration,"[3]; rat, in vivo, po",208 ± 25 ng/mL
same,maximum plasma level,"[4]; in vivo, po",0.12 ± 0.11 µg/mL
same,elimination half-life,[5],2 to 4 min
same,elimination half-life,[6],27 min
same,Distribution half life,"[7]; rat, in vivo, im",9 ± 3.6 min
same,Elimination half life,"[7]; rat, in vivo, im",32.4 ± 8.4 min
same,Time of maximum plasma Concentration,"[7]; rat, in vivo",15.0 ± 4.1 min
CCO[C@H]1O[C@@H]2O[C@@]3(C)CC[C@H]4[C@H](C)CC[C@@H]([C@H]1C)[C@@]24OO3 [arteether],Elimination half life,"[3]; oral, rats",107 ± 28.2 min
same,area under plasma concentration time curve,"[3]; oral, rats",298±68 ngh ml^−1
same,maximum plasma concentration,"[3]; oral, rats",324 ± 10 ng/mL
same,maximum plasma concentration by im route,[7]; rats,160±12.4
same,Distribution half life,"[7]; rats, single IM dose",20.4 ± 4.2 min
same,Mean absorption time,"[7]; rats, single IM dose",0.25 ± 0.06 h
same,Time of maximum plasma Concentration,"[7]; rats, single IM dose",41.4 ± 14.7 min
same,maximum plasma concentration,"[7]; rats, single IM dose",160.7 ± 12.4 ng/mL
same,Absorption 0-8 h,"[7]; rats, single IM dose, listed as AE",34.0±9.6%
C[C@H]1[C@H](OC(=O)CCC(=O)[O-])O[C@@H]2O[C@@]3(C)CC[C@H]4[C@H](C)CC[C@@H]1[C@@]24OO3.[Na+] [sodium artesunate],time of hydrolysis to DHA,[8],≤ 1 h
CO[C@H]1O[C@@H]2O[C@@]3(C)CC[C@H]4[C@H](C)CC[C@@H]([C@H]1C)[C@@]24OO3 [artemether],Elimination half life,"[3]; oral, rats",122 ± 10.8 min
same,area under plasma concentration time curve,"[3]; oral, rats",306±52 ngh ml^−1
same,maximum plasma concentration,"[3]; oral, rats",381 ± 113 ng/mL
same,maximum plasma concentration by im route,[7]; rats,692±234
same,Absorption 0-8 h,"[7]; rats, single IM dose",54.2±25.9% and 54.3%
same,Area under plasma concentration,"[7]; rats, single IM dose",1010 ng·h/mL
same,Distribution half life,"[7]; rats, single IM dose",13.8 min
same,Elimination half life,"[7]; rats, single IM dose",107 ± 48 min
same,Mean absorption time,"[7]; rats, single IM dose",0.14 h
same,Time of maximum plasma Concentration,"[7]; rats, single IM dose",28.8 min
same,maximum plasma concentration,"[7]; rats, single IM dose",692 ng/mL
C[C@@H]1CC[C@H]2[C@@H](C)C(=O)O[C@@H]3O[C@@]4(C)CC[C@@H]1[C@]32OO4 [artemisinin],cure rate,[1]; high doses upto 5.0 g,55%
same,recovery from coma,[9],24 (18-30) h
"C[C@H]1[C@@H](O)O[C@@H]2O[C@@]3(C)CC[C@H]4[C@H](C)CC[C@@H]1[C@@]24OO3 [DHA, Dihydroartemisinin]",DHA activity AUC,[10]; im route,3445 n Mlo l^−1 h
same,duration of activity due to DHA,[10]; im route,over 30 h
same,duration of effective level,[10]; oral dose,≤ 10 h
same,Elimination half life,"[3]; oral, rats",296 ± 43.8 min
same,area under plasma concentration time curve,"[3]; oral, rats",9615±56 ngh ml^−1
same,DHA level compared to that of artesunate,[4]; [17],5 fold
same,maximum plasma level,[4]; [17],0.57 ± 0.18 µg/mL
same,peak plasma levels of dihydroartemisinin,[11]; four subjects,0.26 to 0.71 µg/mL
same,tolerability,[11]; six cases,"well tolerated in 2 subjects while 4 subjects experienced mild headache, nausea or vomiting"
same,complete excretion by,[11],≤ 6 h
same,elimination half-life,[11],42.6 to 87 min
same,Safety in Healthy mice,[12],Safe 8/8
same,Cure rate (%) Day 30,[13],100%
same,peak plasma concentration of DHA,[14],664 ng of DHA/ml
same,number of mice negative (-ve) Day 5,"[15]; 5 mg/kg × 7, of 8 mice",(8) 4-ve
same,number of mice negative (-ve) Day 7,"[15]; 5 mg/kg × 7, of 8 mice",(8) 4-ve
same,Cure-rate Day 30 (%),[15]; [18],25%
same,Parasitaemia % Day 5,[15]; [18],0.83 ± 1.31%
same,Parasitaemia % Day 7,[15]; [18],1.12 ± 1.55%
same,Cure-rate Day 30 (%),[15]; [19],87%
same,Parasitaemia % Day 5,[15]; [19],0.0%
same,Parasitaemia % Day 7,[15]; [19],0.0%
same,Cure rate (%),"[16]; Expt. I, IM in oil, 5 mg/kg × 5, mice 20 ± 1 g",100% (8/8)
same,Cure rate (%),"[16]; Expt. II, im in oil, 5 mg/kg × 5, mice 20 ± 1 g",100% (8/8)
same,Cure rate (%),"[16]; Expt. II, im in oil, 10 mg/kg × 5, mice 20 ± 1 g",100% (8/8)
same,Cure rate (%),"[16]; Expt. III, im in oil, 5 mg/kg × 5, baby mice 12 ± 1 g",100% (9/9)
same,maximum plasma concentration by im route,[7]; rats,1579±443
same,Absorption 0-8 h,"[7]; rats, single IM dose",85.4±12.1% and 85.4%
same,Area under plasma concentration,"[7]; rats, single IM dose",2720 ng·h/mL
same,Elimination half life,"[7]; rats, single IM dose",266 ± 16.2 min
same,Mean absorption time,"[7]; rats, single IM dose",0.21 h
same,Time of maximum plasma Concentration,"[7]; rats, single IM dose",17.5 min
same,maximum plasma concentration,"[7]; rats, single IM dose",1579 ng/mL
